Assays:
Assay type in all cases: functional
[1] = system: RPMI-8226; test: Cytotoxicity against human RPMI8226 cells assessed as growth inhibition at 10 uM after 48 hrs by SRB assay; conditions: RPMI-8226, 48 h, read-out: GI
[2] = system: MOLT-4; test: Cytotoxicity against human MOLT4 cells after 48 hrs by SRB assay; conditions: MOLT-4, 48 h
[3] = system: CCRF-CEM; test: Cytotoxicity against human CCRF-CEM cells after 48 hrs by SRB assay
[4] = system: MCF7; test: Cytotoxicity against human MCF7 cells assessed as cell growth at 10^-4 M after 48 hrs by SRB assay; conditions: MCF7, 48 h, read-out: Activity
[5] = system: SN12C; test: Cytotoxicity against human SN12C cells assessed as cell growth at 10^-4 M after 48 hrs by SRB assay; conditions: read-out: Activity
[6] = system: SK-MEL-28; test: Cytotoxicity against human SK-MEL-28 cells assessed as cell growth at 10^-7 M after 48 hrs by SRB assay; conditions: SK-MEL-28, 48 h, read-out: Activity
[7] = system: SF-295; test: Cytotoxicity against human SF295 cells assessed as cell growth at 10^-7 M after 48 hrs by SRB assay; conditions: SF-295, 48 h, read-out: Activity
[8] = system: NCI-H460; test: Cytotoxicity against human NCI-H460 cells assessed as cell growth at 10^-7 M after 48 hrs by SRB assay; conditions: NCI-H460, 48 h, read-out: Activity
[9] = system: SR; test: Cytotoxicity against human SR cells assessed as cell growth at 10^-7 M after 48 hrs by SRB assay; conditions: read-out: Activity
[10] = system: MDA-MB-468; test: Cytotoxicity against human MDA-MB-468 cells assessed as cell growth at 10^-8 M after 48 hrs by SRB assay; conditions: MDA-MB-468, 48 h, read-out: Activity
[11] = system: BT-549; test: Cytotoxicity against human BT549 cells assessed as cell growth at 10^-8 M after 48 hrs by SRB assay; conditions: BT-549, 48 h, read-out: Activity
[12] = system: 786-0; test: Cytotoxicity against human 786-0 cells assessed as cell growth at 10^-4 M after 48 hrs by SRB assay; conditions: 786-0, 48 h, read-out: Activity
[13] = system: OVCAR-8; test: Cytotoxicity against human OVCAR8 cells assessed as cell growth at 10^-4 M after 48 hrs by SRB assay; conditions: OVCAR-8, 48 h, read-out: Activity
[14] = system: UACC-62; test: Cytotoxicity against human UACC62 cells assessed as cell growth at 10^-4 M after 48 hrs by SRB assay; conditions: UACC-62, 48 h, read-out: Activity
[15] = system: SF-295; test: Cytotoxicity against human SF295 cells assessed as cell growth at 10^-4 M after 48 hrs by SRB assay; conditions: SF-295, 48 h, read-out: Activity
[16] = system: COLO 205; test: Cytotoxicity against human COLO205 cells assessed as cell growth at 10^-4 M after 48 hrs by SRB assay; conditions: COLO 205, 48 h, read-out: Activity
[17] = system: SR; test: Cytotoxicity against human SR cells assessed as cell growth at 10^-4 M after 48 hrs by SRB assay; conditions: read-out: Activity
[18] = system: OVCAR-8; test: Cytotoxicity against human OVCAR8 cells assessed as cell growth at 10^-8 M after 48 hrs by SRB assay; conditions: OVCAR-8, 48 h, read-out: Activity
[19] = system: SK-MEL-2; test: Cytotoxicity against human SK-MEL-2 cells assessed as cell growth at 10^-8 M after 48 hrs by SRB assay; conditions: SK-MEL-2, 48 h, read-out: Activity
[20] = system: Malme-3M; test: Cytotoxicity against human MALME-3M cells assessed as cell growth at 10^-8 M after 48 hrs by SRB assay; conditions: read-out: Activity
[21] = system: SF-295; test: Cytotoxicity against human SF295 cells assessed as cell growth at 10^-8 M after 48 hrs by SRB assay; conditions: SF-295, 48 h, read-out: Activity
[22] = system: NCI-H322M; test: Cytotoxicity against human NCI-H322M cells assessed as cell growth at 10^-8 M after 48 hrs by SRB assay; conditions: read-out: Activity
[23] = system: NCI-H226; test: Cytotoxicity against human NCI-H226 cells assessed as cell growth at 10^-8 M after 48 hrs by SRB assay; conditions: NCI-H226, 48 h, read-out: Activity
[24] = system: HOP-62; test: Cytotoxicity against human HOP62 cells assessed as cell growth at 10^-8 M after 48 hrs by SRB assay; conditions: HOP-62, 48 h, read-out: Activity
[25] = system: MOLT-4; test: Cytotoxicity against human MOLT4 cells assessed as cell growth at 10^-8 M after 48 hrs by SRB assay; conditions: MOLT-4, 48 h, read-out: Activity
[26] = system: T47D; test: Cytotoxicity against human T47D cells after 48 hrs by SRB assay
[27] = system: A498; test: Cytotoxicity against human A498 cells after 48 hrs by SRB assay; conditions: A498, 48 h
[28] = system: SK-MEL-2; test: Cytotoxicity against human SK-MEL-2 cells after 48 hrs by SRB assay; conditions: SK-MEL-2, 48 h
[29] = system: LOX IMVI; test: Cytotoxicity against human LOXIMVI cells after 48 hrs by SRB assay
[30] = system: SF-268; test: Cytotoxicity against human SF268 cells after 48 hrs by SRB assay; conditions: SF-268, 48 h
[31] = system: MDA-MB-468; test: Cytotoxicity against human MDA-MB-468 cells assessed as cell growth at 10^-6 M after 48 hrs by SRB assay; conditions: MDA-MB-468, 48 h, read-out: Activity
[32] = system: 786-0; test: Cytotoxicity against human 786-0 cells assessed as cell growth at 10^-6 M after 48 hrs by SRB assay; conditions: 786-0, 48 h, read-out: Activity
[33] = system: OVCAR-3; test: Cytotoxicity against human OVCAR3 cells assessed as cell growth at 10^-6 M after 48 hrs by SRB assay; conditions: OVCAR-3, 48 h, read-out: Activity
[34] = system: Malme-3M; test: Cytotoxicity against human MALME-3M cells assessed as cell growth at 10^-6 M after 48 hrs by SRB assay; conditions: read-out: Activity
[35] = system: SF-268; test: Cytotoxicity against human SF268 cells assessed as cell growth at 10^-6 M after 48 hrs by SRB assay; conditions: SF-268, 48 h, read-out: Activity
[36] = system: NCI-H322M; test: Cytotoxicity against human NCI-H322M cells assessed as cell growth at 10^-6 M after 48 hrs by SRB assay; conditions: read-out: Activity
[37] = system: MDA-MB-231; test: Cytotoxicity against human MDA-MB-231 cells assessed as cell growth at 10^-7 M after 48 hrs by SRB assay; conditions: MDA-MB-231, 48 h, read-out: Activity
[38] = system: MCF7; test: Cytotoxicity against human MCF7 cells assessed as cell growth at 10^-7 M after 48 hrs by SRB assay; conditions: MCF7, 48 h, read-out: Activity
[39] = system: SN12C; test: Cytotoxicity against human SN12C cells assessed as cell growth at 10^-7 M after 48 hrs by SRB assay; conditions: read-out: Activity
[40] = system: OVCAR-8; test: Cytotoxicity against human OVCAR8 cells assessed as growth inhibition at 10 uM after 48 hrs by SRB assay; conditions: OVCAR-8, 48 h, read-out: GI

## C=CCn1c(C)nc2ccc(Nc3nc(Nc4ncccn4)nc4ccccc34)cc21
[1]
  inhibition of growth at 10 µM: 30%

## C=CCn1c(C)nc2ccc(Nc3nc(Nc4ccc5nc(C)n(CC=C)c5c4)c4ccccc4n3)cc21
[2]
  GI50: 1.67 µM
  LC50: > 100 µM
[3]
  GI50: 2.09 µM
  LC50: > 100 µM
[4]
  growth at 100 µM: -22%
[5]
  growth at 100 µM: -50%
[6]
  growth at 0.1 µM: 95%
[7]
  growth at 0.1 µM: 98%
[8]
  growth at 0.1 µM: 101%
[9]
  growth at 0.1 µM: 93%
[10]
  growth at 0.01 µM: 93%
[11]
  growth at 0.01 µM: 99%
[12]
  growth at 100 µM: -18%
[13]
  growth at 100 µM: -18%
[14]
  growth at 100 µM: -65%
[15]
  growth at 100 µM: -21%
[16]
  growth at 100 µM: -18%
[17]
  growth at 100 µM: -2%
[18]
  growth at 0.01 µM: 97%
[19]
  growth at 0.01 µM: 96%
[20]
  growth at 0.01 µM: 91%
[21]
  growth at 0.01 µM: 94%
[22]
  growth at 0.01 µM: 89%
[23]
  growth at 0.01 µM: 90%
[24]
  growth at 0.01 µM: 99%
[25]
  growth at 0.01 µM: 101%
[26]
  GI50: 1.54 µM
  TGI: 3.18 µM
[27]
  GI50: 0.442 µM
  TGI: 2.08 µM
[28]
  GI50: 1.96 µM
  TGI: 3.54 µM
[29]
  GI50: 1.55 µM
[30]
  GI50: 1.54 µM
  TGI: 3.22 µM
[31]
  growth at 1 µM: 64%
[32]
  growth at 1 µM: 92%
[33]
  growth at 1 µM: 94%
[34]
  growth at 1 µM: 98%
[35]
  growth at 1 µM: 79%
[36]
  growth at 1 µM: 92%
[37]
  growth at 0.1 µM: 87%
[38]
  growth at 0.1 µM: 91%
[39]
  growth at 0.1 µM: 94%

## C=CCn1c(C)nc2cc(Nc3nc(Nc4ccc5nc(C)n(CC=C)c5c4)c4ccccc4n3)ccc21
[2]
  GI50: 0.229 µM
  LC50: > 100 µM
  TGI: 0.629 µM
[3]
  GI50: 0.296 µM
  LC50: > 100 µM
  TGI: 0.769 µM
[4]
  growth at 100 µM: 3%
[5]
  growth at 100 µM: -22%
[6]
  growth at 0.1 µM: 106%
[7]
  growth at 0.1 µM: 93%
[8]
  growth at 0.1 µM: 103%
[9]
  growth at 0.1 µM: 89%
[10]
  growth at 0.01 µM: 106%
[11]
  growth at 0.01 µM: 100%
[12]
  growth at 100 µM: -21%
[13]
  growth at 100 µM: 1%
[14]
  growth at 100 µM: -47%
[15]
  growth at 100 µM: -85%
[16]
  growth at 100 µM: -6%
[17]
  growth at 100 µM: 2%
[18]
  growth at 0.01 µM: 100%
[19]
  growth at 0.01 µM: 96%
[20]
  growth at 0.01 µM: 95%
[21]
  growth at 0.01 µM: 90%
[22]
  growth at 0.01 µM: 92%
[23]
  growth at 0.01 µM: 93%
[24]
  growth at 0.01 µM: 98%
[25]
  growth at 0.01 µM: 98%
[26]
  GI50: 0.28 µM
  LC50: > 100 µM
  TGI: 0.909 µM
[27]
  GI50: 1.66 µM
  LC50: 5.5 µM
  TGI: 3.03 µM
[28]
  GI50: 1.44 µM
  TGI: 3.08 µM
[29]
  GI50: 0.18 µM
  LC50: 0.64 µM
  TGI: 0.339 µM
[30]
  GI50: 1.04 µM
  LC50 (50% lethal concentration): 4.73 µM
  TGI: 2.21 µM
[31]
  growth at 1 µM: -28%
[32]
  growth at 1 µM: -78%
[33]
  growth at 1 µM: -78%
[34]
  growth at 1 µM: 120%
[35]
  growth at 1 µM: 52%
[36]
  growth at 1 µM: 43%
[37]
  growth at 0.1 µM: 101%
[38]
  growth at 0.1 µM: 103%
[39]
  growth at 0.1 µM: 92%

## C=CCn1c(C)nc2cc(Nc3nc(NCCO)nc4ccccc34)ccc21
[40]
  inhibition of growth at 10 µM: 30%
[1]
  inhibition of growth at 10 µM: 30%

## C=CCn1c(C)nc2ccc(Nc3nc(Sc4ccc(N)cc4)nc4ccccc34)cc21
[40]
  inhibition of growth at 10 µM: 30%
[1]
  inhibition of growth at 10 µM: 40%
